Reference: patent publication US8653104B2, “PTEN inhibitor or Maxi-K channels opener” (Otsuka Pharmaceuticals Co., Ltd., priority 2003, dated 2014)

Columns and labels:
Maxi-K channels = target: T1, Maxi-K channels (Homo sapiens, UniProt Q12791); experiment: Whole-cell K+ current recording (patch clamp) in SK-N-SH cells; assay type: cell-based
T1 construct: endogenous in cells; host or cells: SK-N-SH (KCLB 30011) human neuroblastoma cells
Protocol: (§1) Cell cultures: SK-N-SH (KCLB 30011, human brain neuroblastoma) cells were cultured in Eagle's minimum essential medium (MEM) with 2 mM L-glutamine and 1.0 mM sodium pyruvate supplemented with 10% heat-inactivated fetal bovine serum. Cells were grown to confluence at 37° C. in 5% CO2 and used for experiments at no greater than passage 20.
Recording of the whole-cell K^+ current: The experiments were performed in a small bath (0.5 ml) mounted on the stage of an inverted microscope (Nikon model TE300, Tokyo, Japan) perfused continuously at a flow rate of 1 ml/min. Using the whole-cell configuration of the patch clamp technique, the K^+ currents were recorded at room temperature (20˜22° C.) with an Axopatch-200B patch clamp amplifier (Axon Instruments, Foster City, Calif.). Currents were sampled at 1 to 10 kHz after anti-alias filtering at 0.5 to 5 kHz. Data acquisition and command potentials were controlled by pClamp 6.0.3 software (Axon Instruments, Foster City, Calif.). To ensure the voltage clamp quality, electrode resistance was kept below 3 MΩ. Junction potentials were zeroed with the electrode in the standard bath solution. Gigaohm seal formation was achieved by suction and, after establishing the whole cell configuration, the capacitive transients elicited by symmetrical 10 mV voltage clamp steps from −80 mV were recorded at 50 kHz for calculation of cell capacitance. The normal bath solution for the whole-cell recordings was: NaCl 130 mM, KCl 5 mM, MgCl2 1.2 mM, CaCl2 1.8 mM, HEPES 10 mM, glucose 5.2 mM and the pH was adjusted to 7.4 with NaOH. Pipettes were filled with KCl 140 mM, MgCl2 0.5 mM, CaCl2 0.1 mM, ethylenebis(oxonitrilo) tetra-acetic acid (EGTA) 0.09 mM, HEPES 10 mM, glucose 10 mM and the pH was adjusted to 7.4 with KOH.
After establishment of whole-cell recordings and collecting control recordings for approximately 5 minutes until the current elicited by depolarization stabilized, cilostazol was applied to the bath. In the experiments, using glibenclamide or iberiotoxin, cilostazol was applied to the bath about 20 minutes after administering glibenclamide or iberiotoxin.

PTEN = experiment: Suppression of TNF-α-stimulated increase in PTEN phosphorylation level, Western blot in SK-N-SH cells; assay type: cell-based, human; details: cilostazol 1, 10 and 100 μM given 3 hours before TNF-α (50 ng/ml, one hour)
Protocol: as §1
Preparation of TNF-α solution: TNF-α (Upstate Biotechnology, Inc., Lake Placid, N.Y.) was dissolved in the phosphate buffered saline as a 10 μg/ml stock solution.
Western blot analysis: The confluent cells received MEM medium with 1% FBS plus cilostazol 3 hours prior to stimulation with TNF-α and then were exposed to TNF-α for one hour.
The cells were lysed in lysis buffer containing 50 mM Tris-Cl (pH 8.0), 150 mM NaCl, 0.02% sodium azide, 100 μg/ml phenylmethylsulfonyl fluoride, 1 μg/ml aprotinin and 1% Triton X-100. […] The signals of the bands were quantified using a GS-710 Calibrated imaging Densitomerter (Bio-Rad Laboratories, Hercules, Calif.). The results were expressed as a relative density. […]
Statistical analysis: The results are expressed as means±SEM. Statistical differences between groups were determined by Student's t-test. p<0.05 was considered to be significant.

T1 sequence (Q12791 whole entry): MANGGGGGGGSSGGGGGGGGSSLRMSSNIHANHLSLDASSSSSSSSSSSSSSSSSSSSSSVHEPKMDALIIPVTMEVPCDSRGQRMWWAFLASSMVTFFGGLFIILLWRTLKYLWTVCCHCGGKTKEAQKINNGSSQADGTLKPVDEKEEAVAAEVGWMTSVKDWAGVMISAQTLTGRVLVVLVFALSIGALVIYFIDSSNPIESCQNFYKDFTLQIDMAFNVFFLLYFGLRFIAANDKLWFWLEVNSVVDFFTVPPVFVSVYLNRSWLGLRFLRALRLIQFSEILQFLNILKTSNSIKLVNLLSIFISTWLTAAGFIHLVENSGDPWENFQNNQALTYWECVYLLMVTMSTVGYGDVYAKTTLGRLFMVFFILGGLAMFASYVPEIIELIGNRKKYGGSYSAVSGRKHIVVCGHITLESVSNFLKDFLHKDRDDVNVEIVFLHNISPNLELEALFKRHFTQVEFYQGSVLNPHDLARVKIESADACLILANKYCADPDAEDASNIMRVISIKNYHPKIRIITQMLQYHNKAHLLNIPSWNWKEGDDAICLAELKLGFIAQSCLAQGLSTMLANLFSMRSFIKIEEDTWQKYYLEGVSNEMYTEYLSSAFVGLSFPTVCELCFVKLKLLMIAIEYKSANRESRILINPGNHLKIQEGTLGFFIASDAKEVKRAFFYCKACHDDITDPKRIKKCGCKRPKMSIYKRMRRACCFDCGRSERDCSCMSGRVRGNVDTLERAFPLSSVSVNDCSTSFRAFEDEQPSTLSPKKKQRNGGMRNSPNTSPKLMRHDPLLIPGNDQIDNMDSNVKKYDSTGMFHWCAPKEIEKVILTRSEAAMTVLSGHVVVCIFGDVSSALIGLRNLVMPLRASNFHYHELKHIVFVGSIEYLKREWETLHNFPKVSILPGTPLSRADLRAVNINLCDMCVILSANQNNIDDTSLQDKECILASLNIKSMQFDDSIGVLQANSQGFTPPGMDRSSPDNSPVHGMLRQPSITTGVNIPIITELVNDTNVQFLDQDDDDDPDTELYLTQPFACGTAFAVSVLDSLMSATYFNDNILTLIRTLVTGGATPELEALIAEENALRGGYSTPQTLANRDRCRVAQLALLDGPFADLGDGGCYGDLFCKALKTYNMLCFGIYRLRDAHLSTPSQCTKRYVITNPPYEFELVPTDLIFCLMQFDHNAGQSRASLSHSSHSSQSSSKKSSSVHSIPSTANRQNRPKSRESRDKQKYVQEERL

**Q.** Which results are given for `COc1ccc(Cl)cc1C(=O)NCCc1ccc(S(=O)(=O)NC(=O)NC2CCCCC2)cc1` [glibenclamide, 5-chloro-N-[2-[4-[[[(cyclohexyl-amino)carbonyl]amino]sulfonyl]phenyl]ethyl]-2-methoxy-benzamide]?
**A.** block of the cilostazol-increased K+ current (Maxi-K channels; glibenclamide 10 μM added to the bath): not; Maxi-K channel-mediated currents, blocker alone (Maxi-K channels; glibenclamide alone): could not increase

**Q.** How did the “block of the cilostazol-increased K+ current” value (Maxi-K channels; iberiotoxin 100 nM added to the bath) turn out when iberiotoxin was run?
**A.** reversibly blocked

**Q.** Which “TNF-α-stimulated increased PTEN phosphorylation level” value (PTEN) does the source give for `O=C1CCc2cc(OCCCCc3nnnn3C3CCCCC3)ccc2N1` [cilostazol, 6-[4-(1-cyclohexyl-1H-tetrazol-5-yl)butoxy]-3,4-dihydro-carbostyril] here?
**A.** concentration-dependently suppressed

**Q.** And the “Maxi-K channel-mediated currents in co-existence of glibenclamide” value (Maxi-K channels; cilostazol applied about 20 minutes after glibenclamide)?
**A.** increase in maxi-K channel-medicated currents was given

**Q.** What about the “whole-cell calcium activated K+ current” value (Maxi-K channels; cilostazol applied to the bath alone) of the same molecule?
**A.** significantly increased

**Q.** And the “K+ current when added together with iberiotoxin” value (Maxi-K channels; cilostazol together with iberiotoxin, compared with iberiotoxin alone)?
**A.** increase of the current was rather less than iberiotoxin alone
